From patent publication US20120107835A1, “METHOD FOR DETECTING BETA-AMYLOID USING AMINO ACID DIMERS” (E[…] TELECOMM[…] INSTITUTE, priority 2010, published 2012)
No end group written: not given here. *: point of attachment. Biotin = O=C1N[C@H]2[C@H](CS[C@H]2CCCCC(=O)*)N1

tested on: causative β-amyloid (Aβ42); assay: Sandwich ELISA detection of β-amyloid using biotinylated amino acid dimers instead of secondary antibody (absorbance at 450 nm); assay type: binding; conditions: Aβ40 vs Aβ42, dimer 100 μM, FIG. 2
Protocol: Detection of β-amyloid was carried out using the biotinylated amino acid dimers prepared in Example 1, as follows.
Normal β-amyloid (Aβ40) and causative β-amyloid (Aβ42) were obtained from rPeptide (at Bogart, Ga., USA), and monoclonal antibodies specific for the β-amyloids(primary antibodies) were obtained from Covance (France). Each of the primary antibodies was mixed with sodium carbonate (pH 9.2) and the solution was added to a 96-well microplate for coating the wells (high-affinity F series, available from
NUNC, and then the microplate was washed with PBS or distilled water.
Meanwhile, each β-amyloid was dissolved in a sodium carbonate buffer (pH 9.4, Pierce) to a concentration of 1.0 mg/mL. For dilution, 100 μL of the β-amyloid solution was mixed with 9,900 μL of PBS. Each 200 μL of the resulting β-amyloid solution was dispensed into the wells of the 96-well microplate, and incubated for 4-hr at a room temperature so that β-amyloid binds to the primary antibody. Then, the plate was washed five times with PBS buffer (Pierce, at Rockford, Ill., USA), and 100 μL of the biotinylated amino acid dimer solution (amino acid dimer, dissolved in PBS to a concentration of 100 μM) was added to allow reaction for 1 hr. Each well was washed five times with PBS buffer, and 200 μL of streptavidin-HRP solution (diluted by 1:10,000, Pierce, at Rockford, Ill., USA) was added to allow reaction over 1 hr. After the reaction was completed, the plate was washed three times with PBS buffer, 100 μL of TMB substrate solution (KPL, USA) was added to allow reaction for 10-minute under a dark condition. Then, 50 μL of 15% hydrochloric acid was added to stop the reaction, and the absorbance of the reaction mixture at 450 nm was measured using a microplate reader (Bio-RAD, iMark).

Row | Substance | difference of absorbance between Aβ40 and Aβ42
1 | Biotin-Ala-Arg [Dimer 1] | very significant
2 | Biotin-Cys-Ser [Dimer 13] | very significant
3 | Biotin-Arg-Leu [Dimer 5] | very significant
4 | Biotin-Arg-Ile [Dimer 3] | very significant
